These are literature values, as cited in patent US20260306413A1, “COLONIC PURGATIVE TABLET AND COLONIC PURGATIVE COMPRISING SAME” (PHARMBIO KOREA CO., LTD., priority 2023, published 2026).

As to `O=P(O)(O)O` [oral sodium phosphate, sodium phosphate], the complications entry (oral) is given as “acute phosphate nephropathy”.
Consider Phosphate, for which, under “compared to PEG”, the colon cleansing effect result was “colon cleansing effect in smaller doses compared to PEG”. Further, for the setting “frequency vs PEG”, the side effects result was “side effects such as abdominal inflation, pain, and dizziness at a similar frequency to PEG”.
